Experimental data published in US11814375B2, “Heterocyclic compounds” (Hoffmann-La Roche Inc., priority 2019, dated 2023).

Each compound was assayed against T1, MAGL (Homo sapiens, UniProt Q99685) (assay: 2-AG assay: MAGL inhibitory activity by hydrolysis of 2-arachidonoylglycerol to arachidonic acid, followed by mass spectrometry). Conditions: 8 μM 2-arachidonoylglycerol, 15 min preincubation and 30 min reaction at RT, arachidonic acid/d8-arachidonic acid ratio by MS.
T1 sequence (Q99685 1-303): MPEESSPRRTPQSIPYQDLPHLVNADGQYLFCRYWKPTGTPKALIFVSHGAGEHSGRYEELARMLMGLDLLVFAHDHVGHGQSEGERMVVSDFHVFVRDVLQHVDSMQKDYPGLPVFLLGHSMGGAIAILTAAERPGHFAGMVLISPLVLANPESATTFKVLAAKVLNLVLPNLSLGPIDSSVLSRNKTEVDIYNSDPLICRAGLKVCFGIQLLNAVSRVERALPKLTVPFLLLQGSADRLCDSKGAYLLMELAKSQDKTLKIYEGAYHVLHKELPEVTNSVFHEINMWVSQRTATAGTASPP
Assay type: biochemical
Protocol: Compounds of formula (I) were profiled for MAGL inhibitory activity by determining the enzymatic activity by following the hydrolysis of the natural substrate 2-arachidonoylglycerol (2-AG) resulting in arachidonic acid, which can be followed by mass spectrometry. This assay is hereinafter abbreviated “2-AG assay”.
The 2-AG assay was carried out in 384 well assay plates (PP, Greiner Cat #784201) in a total volume of 20 μL. Compound dilutions were made in 100% DMSO (VWR Chemicals 23500.297) in a polypropylene plate in 3-fold dilution steps to give a final concentration range in the assay from 12.5 μM to […]. 0.25 μL compound dilutions (100% DMSO) were added to 9 μL MAGL in assay buffer (50 mM TRIS (GIBCO, 15567-027), 1 mM EDTA (Fluka, 03690-100 mL), 0.01% (v/v) Tween. After shaking, the plate was incubated for 15 min at RT. To start the reaction, 10 μL 2-arachidonoylglycerol in assay buffer was added. The final concentrations in the assay was […] and 8 μM 2-arachidonoylglyerol. After shaking and 30 min incubation at RT, the reaction was quenched by the addition of 40 μL of ACN containing 4 μM of d8-arachidonic acid. The amount of arachidonic acid was traced by an online SPE system (Agilent Rapidfire) coupled to a triple quadrupole mass spectrometer (Agilent 6460). A C18 SPE cartridge (G9205A) was used in an ACN/water liquid setup. The mass spectrometer was operated in negative electrospray mode following the mass transitions 303.1→259.1 for arachidonic acid and 311.1→267.0 for d8-arachidonic acid. The activity of the compounds was calculated based on the ratio of intensities [arachidonic acid/d8-arachidonic acid].
`Cc1cccc(Oc2ccc(C3CN(C(=O)N4CC[C@@H]5OCC(=O)N[C@@H]5C4)C3)cc2)n1` [Example 26, (+)-(4aR,8aS)-6-[3-[4-[(6-Methyl-2-pyridyl)oxy]phenyl]azetidine-1-carbonyl]-4,4a,5,7,8,8a-hexahydropyrido[4,3-b][1,4]oxazin-3-one] showed an IC50 of 3.9 nM.
In the case of `O=C1CO[C@H]2CCN(C(=O)N3CC(c4ccc(Oc5cnccc5Cl)cc4)C3)C[C@H]2N1` [Example 27, (+)-(4aR,8aS)-6-[3-[4-[(4-chloro-3-pyridyl)oxy]phenyl]azetidine-1-carbonyl]-4,4a,5,7,8,8a-hexahydropyrido[4,3-b][1,4]oxazin-3-one], the IC50 is reported as 0.3 nM.
Work on `O=C1CO[C@H]2CCN(C(=O)N3CC(c4ccc(Oc5ccncc5F)cc4)C3)C[C@H]2N1` [Example 28, (+)-(4aR,8aS)-6-[3-[4-[(3-Fluoro-4-pyridyl)oxy]phenyl]azetidine-1-carbonyl]-4,4a,5,7,8,8a-hexahydropyrido[4,3-b][1,4]oxazin-3-one] yielded an IC50 of 6.3 nM.
`CS(=O)(=O)c1nccc(Oc2ccc(C3CN(C(=O)N4CC[C@@H]5OCC(=O)N[C@@H]5C4)C3)cc2)n1` [Example 29, (+)-(4aR,8aS)-6-[3-[4-(2-Methylsulfonylpyrimidin-4-yl)oxyphenyl]azetidine-1-carbonyl]-4,4a,5,7,8,8a-hexahydropyrido[4,3-b][1,4]oxazin-3-one] showed an IC50 of 90.9 nM.
`Cc1ccc(C)c(Oc2ccc(C3CN(C(=O)N4CC[C@@H]5OCC(=O)N[C@@H]5C4)C3)cc2)n1` [Example 30, (4aR,8aS)-6-[3-[4-[(3,6-Dimethyl-2-pyridyl)oxy]phenyl]azetidine-1-carbonyl]-4,4a,5,7,8,8a-hexahydropyrido[4,3-b][1,4]oxazin-3-one] showed an IC50 of 0.7 nM.
`O=C1CO[C@H]2CCN(C(=O)N3CC(c4ccc(-c5ccn[nH]5)cc4)C3)C[C@H]2N1` [Example 31, (4aR,8aS)-6-[3-[4-(1H-Pyrazol-5-yl)phenyl]azetidine-1-carbonyl]-4,4a,5,7,8,8a-hexahydropyrido[4,3-b][1,4]oxazin-3-one] was tested, and the IC50 was 91.9 nM.
`CC(C)(C)Cn1nccc1-c1ccc(C2CN(C(=O)N3CC[C@@H]4OCC(=O)N[C@@H]4C3)C2)cc1` [Example 32a, (4aR,8aS)-6-[3-[4-[2-(2,2-Dimethylpropyl)pyrazol-3-yl]phenyl]azetidine-1-carbonyl]-4,4a,5,7,8,8a-hexahydropyrido[4,3-b][1,4]oxazin-3-one] gave an IC50 of 0.2 nM.
`CC(C)(C)Cn1ccc(-c2ccc(C3CN(C(=O)N4CC[C@@H]5OCC(=O)N[C@@H]5C4)C3)cc2)n1` [Example 32b, (4aR,8aS)-6-[3-[4-[1-(2,2-Dimethylpropyl)pyrazol-3-yl]phenyl]azetidine-1-carbonyl]-4,4a,5,7,8,8a-hexahydropyrido[4,3-b][1,4]oxazin-3-one] gave an IC50 of 6.5 nM.
Work on `O=C1CO[C@H]2CCN(C(=O)N3CC(c4ccc(-c5ncccc5Cl)cc4)C3)C[C@H]2N1` [Example 33, (4aR,8aS)-6-[3-[4-(3-Chloro-2-pyridyl)phenyl]azetidine-1-carbonyl]-4,4a,5,7,8,8a-hexahydropyrido[4,3-b][1,4]oxazin-3-one] yielded an IC50 of 2.7 nM.
`Cc1nc(C)c(-c2ccc(C3CN(C(=O)N4CC[C@@H]5OCC(=O)N[C@@H]5C4)C3)cc2)o1` [Example 34, (4aR,8aS)-6-[3-[4-(2,4-Dimethyloxazol-5-yl)phenyl]azetidine-1-carbonyl]-4,4a,5,7,8,8a-hexahydropyrido[4,3-b][1,4]oxazin-3-one] showed an IC50 of 22.9 nM.
`Cc1cc(C)n(-c2ccc(C3CN(C(=O)N4CC[C@@H]5OCC(=O)N[C@@H]5C4)C3)cc2)n1` [Example 35, (4aR,8aS)-6-[3-[4-(3,5-Dimethylpyrazol-1-yl)phenyl]azetidine-1-carbonyl]-4,4a,5,7,8,8a-hexahydropyrido[4,3-b][1,4]oxazin-3-one] gave an IC50 of 17.4 nM.
